“And” between values parts separate entries of the source, which are not always exact repeats. Identical values can stand only once. Like-named read-outs stand apart in the source and are kept apart here.
How the values were obtained:
Assay type in all cases: cell-based
MCF-7 cells = test: Cytoxicity on MCF-7 cells (drug inhibition, cell count); settings: for inhibition at 1 µg/mL / inhibition at 5 µg/mL / inhibition at 10 µg/mL / inhibition at 50 µg/mL: Homo sapiens, MCF7, MCF-7 cells; for inhibition at 1 µg/mL / inhibition at 5 µg/mL / inhibition at 10 µg/mL / inhibition at 50 µg/mL / % Inhibition / % Inhibition Mean: vs 2% DMSO; for Cells (×10^4): single replicate count
From the text: (§1) The purified and identified analogs were subjected to in vitro biological testing. […] These three congeners were further evaluated in H9 and PC3 cells. AZT was employed as a positive control in all of these experiments.

H-9 cells = test: Cytoxicity on H-9 cells (drug inhibition, cell count); settings: same conditions as AZT
From the text: as §1

PC-3 cells = test: Cytoxicity on PC-3 cells (drug inhibition, cell count); settings: same conditions as AZT
From the text: The purified and identified analogs were subjected to in vitro biological testing.

[1] = MCF-7 cells, drug 1 μg/ml, mean of replicates
[2] = MCF-7 cells, drug 1 μg/ml, single replicate
[3] = MCF-7 cells, drug 5 μg/ml, mean of replicates
[4] = MCF-7 cells, drug 5 μg/ml, single replicate
[5] = MCF-7 cells, drug 10 μg/ml, mean of replicates
[6] = MCF-7 cells, drug 10 μg/ml, single replicate
[7] = MCF-7 cells, drug 50 μg/ml, mean of replicates
[8] = MCF-7 cells, drug 50 μg/ml, single replicate

Structure (SMILES): COc1cc(C=CC(=O)c2cc(C)cc([N+](=O)[O-])c2O)cc(OC)c1OC [CHNM 3M]
- inhibition at 1 µg/mL (MCF-7 cells; drug 1 μg/ml, mean of replicates, read-out: % Inhibition Mean): 12.6%
- inhibition at 1 µg/mL (MCF-7 cells; drug 1 μg/ml, single replicate, read-out: % Inhibition): 13.1%
- inhibition at 5 µg/mL (MCF-7 cells; drug 5 μg/ml, mean of replicates, read-out: % Inhibition Mean): 51.4%
- inhibition at 5 µg/mL (MCF-7 cells; drug 5 μg/ml, single replicate, read-out: % Inhibition): 49.4%
- inhibition at 10 µg/mL (MCF-7 cells; drug 10 μg/ml, mean of replicates, read-out: % Inhibition Mean): 90.3%
- inhibition at 10 µg/mL (MCF-7 cells; drug 10 μg/ml, single replicate, read-out: % Inhibition): 90.2%
- inhibition at 50 µg/mL (MCF-7 cells; drug 50 μg/ml, mean of replicates, read-out: % Inhibition Mean): 96.6%
- inhibition at 50 µg/mL (MCF-7 cells; drug 50 μg/ml, single replicate, read-out: % Inhibition): 96.6%
- response to MCF-7 cells in the different drug concentrations (MCF-7 cells; MCF-7 cells): good activities
- Cells (×10^4) Mean (MCF-7 cells; [1]): 44.50 ×10^4
- Cells (×10^4) (MCF-7 cells; MCF-7 cells, drug 1 μg/ml): 44.3 ×10^4 (2×) and 45.0 ×10^4
- % Inhibition (MCF-7 cells; [2]): 11.62%
- Cells (×10^4) Mean (MCF-7 cells; [3]): 24.75 ×10^4
- Cells (×10^4) (MCF-7 cells; MCF-7 cells, drug 5 μg/ml): 25.8 ×10^4 and 24.0 ×10^4 and 24.5 ×10^4
- % Inhibition (MCF-7 cells; [4]): 52.86% and 51.88%
- Cells (×10^4) Mean (MCF-7 cells; [5]): 4.92 ×10^4
- Cells (×10^4) (MCF-7 cells; MCF-7 cells, drug 10 μg/ml): 5.0 ×10^4 (2×) and 4.8 ×10^4
- % Inhibition (MCF-7 cells; [6]): 90.67%
- Cells (×10^4) Mean (MCF-7 cells; [7]): 1.75 ×10^4
- Cells (×10^4) (MCF-7 cells; MCF-7 cells, drug 50 μg/ml): 1.8 ×10^4 and 2.0 ×10^4 and 1.5 ×10^4
- % Inhibition (MCF-7 cells; [8]): 96.07% and 97.05%
- inhibitory activity compared to AZT (MCF-7 cells; MCF-7 cells, same conditions as AZT): much superior inhibitory activities
- inhibitory activity compared to AZT (H-9 cells): much superior inhibitory activities
- inhibitory activity compared to AZT (PC-3 cells): much superior inhibitory activities

Structure (SMILES): COc1cc(C=CC(=O)c2cc(Cl)cc(Cl)c2O)cc(OC)c1OC [CHCl 3M]
- Cells (×10^4) Mean (MCF-7 cells; [1]): 53.17 ×10^4
- % Inhibition Mean (MCF-7 cells; [1]): −4.42%
- Cells (×10^4) (MCF-7 cells; MCF-7 cells, drug 1 μg/ml): 54.0 ×10^4 and 54.3 ×10^4 and 51.3 ×10^4
- % Inhibition (MCF-7 cells; [2]): −6.06% and −6.55% and −0.65%
- Cells (×10^4) Mean (MCF-7 cells; [3]): 52.75 ×10^4
- % Inhibition Mean (MCF-7 cells; [3]): −3.6%
- Cells (×10^4) (MCF-7 cells; MCF-7 cells, drug 5 μg/ml): 53.8 ×10^4 and 51.5 ×10^4 and 50.0 ×10^4
- % Inhibition (MCF-7 cells; [4]): −5.56% and −1.15% and −4.09%
- Cells (×10^4) Mean (MCF-7 cells; [5]): 43.75 ×10^4
- % Inhibition Mean (MCF-7 cells; [5]): 14.08%
- Cells (×10^4) (MCF-7 cells; MCF-7 cells, drug 10 μg/ml): 42.5 ×10^4 and 43.3 ×10^4 and 45.5 ×10^4
- % Inhibition (MCF-7 cells; [6]): 16.53% and 15.06% and 10.64%
- Cells (×10^4) Mean (MCF-7 cells; [7]): 31.50 ×10^4
- % Inhibition Mean (MCF-7 cells; [7]): 38.13%
- Cells (×10^4) (MCF-7 cells; MCF-7 cells, drug 50 μg/ml): 32.0 ×10^4 and 32.8 ×10^4 and 29.8 ×10^4
- % Inhibition (MCF-7 cells; [8]): 37.15% and 35.68% and 41.57%

— patent US8314143B2, “Synthetic flavonoids and pharmaceutical compositions and therapeutic methods of treatment of HIV infection and other pathologies” (Florida A&M University, priority 2006, dated 2012)
